{
  "source": "patent US12318402B2",
  "about": "“Composition for treating or preventing colitis by NAMPT metabolic regulation” (AJOU UNIVERSITY INDUSTRY-ACADEMIC COOPERATION FOUNDATION, priority 2021, dated 2025)",
  "key": {"BMDM [1]": {"system": "BMDM", "assay": "NADPH level measurement in macrophages (BMDM)", "format": "cell-based, mouse", "procedure": "(§1) Bone marrow derived macrophages (hereinafter referred to as BMDM) were harvested, and according to the manufacturer's instructions, EnzyChrom NAD^+/NADHA assay Kit (Bioassay Systems, Hayward, CA, USA), Elite NADPH Assay Kit (eEnzyme, Gaithersburg, MD, USA) and Cell Titer-Glo® Luminescent Cell Viability assay (Promega, Madison, WI, USA) were used for analysis.\n(§2) Since NAD^+ is an important cofactor in ATP production, ATP levels were measured during LPS treatment. […] However, the NADPH level in NAMPT-depleted macrophages was reduced by 21%."}, "BMDMs": {"system": "BMDMs", "assay": "ROS measurement in LPS- and IFN-γ-activated BMDMs", "format": "cell-based, mouse", "settings": "FIG. 13B", "procedure": "BMDM or peritoneal macrophages were incubated with HBSS containing 5 μM CM-H2DCFDA (Invitrogen, Carlsbad, CA, USA) for 15 min at 37° C. To measure mitochondrial reactive oxygen species levels, cells were incubated with 5 μM MitoSOX (Invitrogen) for 15 minutes. FACS Canto II (BD) was used to monitor fluorescence levels."}, "BMDM [2]": {"system": "BMDM", "assay": "pHrodo green E. coli Bioparticles phagocytosis assay in BMDM", "format": "cell-based, mouse", "settings": "for pHrodo intensity: BMDM of WT mice, FIG. 10B, 10D, 11B-11D", "procedure": "(§3) pHrodo™ green-conjugated E. coli Bioparticles™ were diluted in serum medium, incubated for 30 minutes and washed twice with PBS. Cells were incubated for the time indicated in the manufacturer's instructions and analyzed using a FACS Canto II flow cytometer (BD) or fluorescence microscope (DFC3000G; Leica, Wetzlar, Germany).\n(§4) Pulse and chase phagocytosis assays were performed using pHrodo green to compare phagocytic activity between macrophages of WT and KO mice. In FIG. 11A, there was an increase in the intensity of the green fluorescence signal in the BMDM of WT mice, indicating the gradual maturation and fusion of phagosomes containing pHrodo green with lysosomes."}, "RAW264.7 cells": {"system": "RAW264.7 cells", "assay": "pHrodo green phagocytosis assay in RAW264.7 cells", "format": "cell-based", "settings": "FIG. 10C, 10D, 11D", "procedure": "as §3, §4"}, "Raw 264.7 cells": {"system": "Raw 264.7 cells", "assay": "ROS measurement in Raw 264.7 cells upon LPS", "format": "cell-based", "settings": "FIG. 10H"}, "BMDM [3]": {"system": "BMDM", "assay": "NAD+ level measurement in BMDM", "format": "cell-based, mouse", "procedure": "as §1, §2"}, "BMDM [4]": {"system": "BMDM", "assay": "M1/M2 macrophage polarization of BMDM (FACS, Western blot)", "format": "cell-based, mouse", "procedure": "The cell suspension of Example 4 was stained with various combinations of fluorochrome-conjugated antibodies on ice for 20 minutes under dark conditions, wherein the antibodies included anti-CD45 (30-F11), anti-CD1 lb (M1/70), anti-F4/80 (BM8), anti-Ly6G (1A8), anti-Ly6C (HK1.4), anti-MHC II (M5/114.15.2), anti-CD11c (N418), anti-CD206 (MMR) and anti-CD86 (GL-1) (all purchased from Biolegend, San Diego, CA, USA). Samples were obtained from the FACS Canto II Flow Cytometer (BD, Franklin Lakes, NJ, USA). Data were analyzed using FlowJo™ Software (BD).\nNext, it was determined whether NAMPT is involved in the polarization of M1 and M2 macrophages."}, "DSS-induced colitis": {"system": "DSS-induced colitis", "assay": "DSS-induced colitis model in NAMPT KO mice with NMN administration", "format": "in vivo, mouse", "source_text": "Nampt^f/f mice (C57BL6), which have two loxP sites adjacent to exon 5, were crossed with LyzM-Cre mice (C57BL6) to specifically knock out (KO) NAMPT in myeloid cell lineages including macrophages (Nampt^f/fLyzMCre^+/− mice; hereinafter referred to as KO mice). KO mice (heterozygous) were used as mice knocked out of bone marrow-specific NAMPT, and Nampt^f/f mice (wild type; hereinafter referred to as WT mice) were used as controls. The mice were stored at the Ajou University Laboratory Animal Research Center and preserved according to the guidelines of the Institution's Animal Care and Use Committee, which approved all animal procedures (2020-0013).\nAge- and gender-matched WT mice and KO mice were administered with 2.5% DSS (MP Biomedicals, Santa Ana, CA, USA) for 7 days and then allowed to recover for 7 days. Colitis severity was determined daily through a scoring system based on the sum of scores for the following parameters: weight loss (0 points=no weight loss/weight gain, 1=5 to 10% weight loss, 2=11 to 15% weight loss, 3=16 to 20% weight loss, and 4=21% or more weight loss); stool consistency (score of 0=normal and well formed, 2=very soft and not formed, and 4=loose stool); and hemorrhagic stool score (0=normal colored stool, 2=red colored stool, 4=bloody stool). The disease activity index (DAI) ranged from 0 to 12.\nHistology was scored blindly using a semi-quantitative scoring system based on the sum of scores for the following parameters: presence of ulceration: 0=none, 1=present but very slight, 2=minimal, 3=moderate, 4=widespread; presence of inflammation: 0=none, 1=minimal, 2=mild, 3=moderate, 4=severe; degree of inflammation: 0=none, 1=mucosal, 2=mucosal+submucosal, 3=mucosal+submucosal+muscle penetration, 4=full thickness invasion. Immunohistochemistry was performed using rabbit anti-NAMPT (Bethyl Laboratories, TX, USA), rabbit anti-Ki-67 (Abcam, Cambridge, UK), rabbit anti-cleaved caspase 3 (Cell Signaling Technology), mouse anti-CD326 (EpCAM)-APC (Invitrogen) and mouse anti-F4/80 (Abcam) antibodies.\nApoptosis was assessed by the TUNEL assay using the Apoptag plus in situ apoptosis fluorescein detection kit (Merck) according to the manufacturer's instructions. TUNEL positive signals were corrected to total nuclear signals for each field. The phagocytic cells were stained using the Apoptag ISOL dual fluorescence apoptosis detection kit (Millipore) according to the manufacturer's instructions. The stained samples were then incubated overnight with mouse anti-F4/80 antibodies. Fluorescence images were obtained by a confocal microscope (A1R HD25, Nikon, Tokyo, Japan) and a slide scanner (Axioscan, Zeiss, Germany)."}, "[5]": {"settings": "mouse, in vivo", "text": "It was further elucidated whether there was any clear cytotoxic effect by NMN injection in mice."}, "[6]": {"settings": "macrophages of KO mice, NMN with/without 6AN, FIG. 12I"}, "[7]": {"settings": "NAMPT KO mice, 2.5% DSS, 500 mg/kg i.p."}},
  "data": [
    {"compound": "NC(=O)c1ccc(N)nc1", "note": "[6AN, 6-aminonicotinamide]", "values": [
      {"measurement": "NADPH levels", "setting": "BMDM [1]; 6AN during LPS challenge, FIG. 12J", "value": "further reduced NADPH levels"},
      {"measurement": "NADPH levels", "setting": "BMDM [1]; [6]", "value": "blocked"},
      {"measurement": "NADPH levels", "setting": "BMDM [1]; macrophages of WT mice, FIG. 12H", "value": "reduced NADPH levels in a dose-dependent manner"},
      {"measurement": "ROS levels", "setting": "BMDMs", "value": "decrease in ROS levels"}
    ]},
    {"compound": "CO/C1=C\\C(C)=C\\[C@@H](C)[C@@H](O)[C@@H](C)C/C(C)=C/C=C/[C@H](OC)[C@@H]([C@@H](C)[C@@H](O)[C@H](C)[C@@]2(O)C[C@@H](O)[C@H](C)[C@@H](C(C)C)O2)OC1=O", "note": "[Baf A1, bafilomycin A1]", "values": [
      {"measurement": "pHrodo intensity", "setting": "BMDM [2]", "value": "reduced the fluorescence intensity"},
      {"measurement": "pHrodo intensity", "setting": "RAW264.7 cells", "value": "reduced the fluorescence intensity"}
    ]},
    {"compound": "O=C(/C=C/c1cccnc1)NCCCCC1CCN(C(=O)c2ccccc2)CC1", "note": "[FK866]", "values": [
      {"measurement": "pHrodo intensity", "setting": "BMDM [2]", "value": "decreased"},
      {"measurement": "ROS production", "setting": "Raw 264.7 cells; response to LPS", "value": "partially inhibited"},
      {"measurement": "NADPH levels", "setting": "BMDM [1]; in LPS treatment, FIG. 12G", "value": "further decrease in NADPH levels"},
      {"measurement": "NAD+ levels", "setting": "BMDM [3]; FIG. 12B", "value": "significantly reduced"},
      {"measurement": "NAD+ levels", "setting": "BMDM [3]; LPS treatment", "value": "further decrease"},
      {"measurement": "pHrodo intensity", "setting": "RAW264.7 cells", "value": "reduced pHrodo intensity"},
      {"measurement": "polarization of M1 and M2 macrophages", "setting": "BMDM [4]; BMDM treated with LPS/IFN-γ or IL-4, FACS, FIG. 7A, 7B", "value": "did not result in polarization of M1 and M2 macrophages"},
      {"measurement": "expression of M1 and M2 macrophage-specific markers", "setting": "BMDM [4]; Western blot, FIG. 7D", "value": "did not affect"}
    ]},
    {"compound": "NC(=O)c1ccc[n+]([C@@H]2O[C@H](COP(=O)([O-])OP(=O)(O)OC[C@H]3O[C@@H](n4cnc5c(N)ncnc54)[C@H](O)[C@@H]3O)[C@@H](O)[C@H]2O)c1", "note": "[NAD^+, nicotinamide adenine dinucleotide]", "values": [
      {"measurement": "inhibitory effect of FK866 on ROS production", "setting": "Raw 264.7 cells; LPS, FK866, NAD+ co-treatment", "value": "recovered"}
    ]},
    {"compound": "NC(=O)c1ccc[n+]([C@@H]2O[C@H](COP(=O)([O-])O)[C@@H](O)[C@H]2O)c1", "note": "[NMN, nicotinamide mononucleotide]", "values": [
      {"measurement": "pHrodo fluorescence intensity", "setting": "BMDM [2]; BMDM of KO mice", "value": "restored fluorescence intensity"},
      {"measurement": "NADPH levels", "setting": "BMDM [1]; in LPS treatment, FIG. 12G", "value": "increased NADPH levels"},
      {"measurement": "NADPH levels", "setting": "BMDM [1]; [6]", "value": "restored NADPH levels"},
      {"measurement": "NADPH levels", "setting": "BMDM [1]; macrophages of KO mice, FIG. 12D, 12E", "value": "increased NADPH levels"},
      {"measurement": "NAD+ levels", "setting": "BMDM [3]; after NAMPT knock out or FK866 treatment, FIG. 12B", "value": "restored the phenotype"},
      {"measurement": "survival", "setting": "DSS-induced colitis; NAMPT KO mice, 2.5% DSS, 500 mg/kg NMN i.p. 3 times a week, 8 out of 12", "value": 67, "unit": "%"},
      {"measurement": "DAI", "setting": "DSS-induced colitis; [7]", "value": "restored"},
      {"measurement": "weight loss", "setting": "DSS-induced colitis; [7]", "value": "restored"},
      {"measurement": "F4/80+ macrophage population", "setting": "DSS-induced colitis; colon tissue, FIG. 14F", "value": "decrease"},
      {"measurement": "Ki-67+ cells", "setting": "DSS-induced colitis; colon tissue, FIG. 14F", "value": "increased"},
      {"measurement": "positive signals of TUNEL", "setting": "DSS-induced colitis; colon tissue, FIG. 14F", "value": "decreased"},
      {"measurement": "positive signals of cleaved caspase 3", "setting": "DSS-induced colitis; colon tissue, FIG. 14F", "value": "decreased"},
      {"measurement": "abnormalities in the colon, liver and spleen at the microscopic level", "setting": "[5]", "value": "no abnormalities"},
      {"measurement": "serum ALT level", "setting": "[5]", "value": "similar"},
      {"measurement": "serum AST level", "setting": "[5]", "value": "similar"}
    ]}
  ]
}
